Legend:
3T3-p75 cells = experiment: NIH-3T3 cell survival (ViaLight); assay type: cell-based, mouse; conditions: serum-free medium, 72-96 h, PTX-BD4-3 1000 nM
Experimental: (§1) Fig. 2. PTX-BD4-3 promotes cell survival preferentially through TrkB. (A-D) Neurotrophin receptor-expressing NIH-3T3 cells were incubated in culture medium (CM) alone or in medium plus either the indicated neurotrophins (BDNF, NGF, NT-3) or PTX-BD4-3 or its parent compound LM22A-4 for 72-96 h, after which survival was measured using the ViaLight assay. […] Scale bar: 10 μm. (B) Survival dose-response curves for PTX-BD4-3 and LM22A-4 in 3T3-TrkB cells. ^§P≤0.001 compared to CM alone. (C) Representative images of 3T3-TrkA, 3T3-TrkC and 3T3-p75 cells grown in the presence of CM alone, CM+neurotrophin or CM+PTX-BD4-3. Scale bar: 10 μm. NGF, NT-3 and BDNF served as positive controls for 3T3-TrkA, 3T3-TrkC and 3T3-p75 cells, respectively. (D) PTX-BD4-3 (1000 nM) had no effect on survival of 3T3-TrkA, 3T3-TrkC or 3T3-p75 cells compared to medium alone. *P≤0.05, ***P≤0.001 compared to CM alone. For each determination in B and D, n=10-32 wells derived from four to five independent experiments. Statistical significance was determined by one-way ANOVA with Dunnett's post hoc multiple comparison test. (E,F) […] protein was extracted from human cementoblast-like cell (HCEM) cultures treated with either culture medium alone, BDNF, LM22A-4 or PTX-BD4-3, immunoprecipitated with anti-TrkB antibody and then probed sequentially on western blots with anti-Shc and anti-TrkB antibody. The ratio of Shc to TrkB in treated cultures was normalized and compared to control (CM alone) using Kruskal-Wallis ANOVA followed by Dunn's multiple comparisons test (*P≤0.05, ^§P≤0.001). n=13 independent experiments, and each protein sample was run on duplicate western blots and the normalized values averaged. RLUs, relative light units.
(§2) Mouse NIH-3T3 cells expressing TrkA (NIH-3T3-TrkA) were provided by Dr William Mobley (University of California at San Diego, San Diego, CA, USA), and NIH-3T3 cells expressing TrkB (NIH-3T3-TrkB) or TrkC (NIH-3T3-TrkC) were provided by Dr David Kaplan (University of Toronto, Toronto, ON, Canada). Cells were propagated in Dulbecco's modified Eagle medium (DMEM) supplemented with 10% fetal bovine serum (FBS; Invitrogen) and 200-400 µg/ml Geneticin. Cells were seeded into 24-well plates (30,000 cells/well) and cultured in medium consisting of 50% PBS and 50% DMEM without supplements. Following exposure to BDNF (20 ng/ml, 0.7 nM) or 10-1000 nM LM22A-4 or PTX-BD4-3 for 72-96 h, cells were suspended in 50 µl lysis buffer, transferred to white, opaque 96-well culture plates and survival was measured using the ViaLight Assay (Lonza Group, Rockland, ME, USA).

3T3-TrkA cells = experiment: NIH-3T3 cell survival (ViaLight); assay type: cell-based, mouse; conditions: serum-free medium, 72-96 h, PTX-BD4-3 1000 nM
Experimental: as §1, §2

3T3-TrkC cells = experiment: NIH-3T3 cell survival (ViaLight); assay type: cell-based, mouse; conditions: serum-free medium, 72-96 h, PTX-BD4-3 1000 nM
Experimental: as §1, §2

[1] = system: heterozygous (Het) female Mecp2 mutant mice; experiment: Whole-body plethysmography (apnea index); assay type: in vivo, mouse
Experimental: (§3) Small-molecule compounds were diluted in saline and delivered by i.p. injection. To define the acute effects of single drug treatments, behavioral testing was initiated 1 h after dosing. Durable effects of single drug treatments were evaluated 24 h after dosing. To define the effects of repeated dosing, mice were treated once every 3 days (q72 h) for 4 or 8 weeks, and behavioral testing was performed 24 h after the last dose.
Breathing was recorded in unrestrained Wt and Het mice using a whole-body plethysmograph (EMMS Systems), in which a constant bias flow supply connected to the animal recording chamber ensured continuous inflow of fresh air (1 l/min) and ambient temperature was maintained between 23°C and 25°C. Animals were allowed to acclimate in the recording chambers for 30 min, and respiratory data were collected for the next 3 h. Because respiration is strongly influenced by behavioral state, data were only analyzed from periods of quiet breathing, which was defined as periods when the animal was not moving and had all four paws on the chamber floor. In most experiments, aggregated episodes of quiet breathing totaling at least 10 min were used for analysis. […] Apneas were defined as breathing pauses longer than 2× the average total breath duration (Ttot) measured during quiet breathing and are reported here as apneas/min (apnea index).

[2] = system: heterozygous (Het) female Mecp2 mutant mice; experiment: Foot slip; assay type: in vivo, mouse; conditions: chronic treatment, 24 h after last treatment (data not shown)
Experimental: as §3
Foot slip was used to assess locomotor coordination and spontaneous movement on a challenging substrate. Animals were placed on an elevated wire mesh surface (50 cm^2) with 1 cm^2 openings and allowed to freely explore for 5 min ([Starkey et al., 2005]). Total distance traveled was measured by a computer-operated animal activity system (ANY-maze, Stoelting). The total number of forepaw and hindpaw slips, where the foot came completely through the grate with no toes remaining on the grid, was manually counted, and the number of slips/cm traveled was calculated.
Figure S3. Single administration of PTX-BD4-3 reduces foot slip errors in Het mice. Mice received a single injection of PTX-BD4-3 (P.1, P.5, P.50) one hour prior to the beginning of foot slip testing. n = 10-23 animals derived from 3 […]
***p<0.001 compared to saline-treated Wt mice (V, black bar), †p<0.05 compared to saline-treated Het mice (V, grey bar); One-Way ANOVA with LSD post-hoc analysis. […]

With `COCCN(C)C(=O)c1cc(C(=O)N(C)CCOC)cc(C(=O)N(C)CCOC)c1` [PTX-BD4-3, benzene-1,3,5-tricarboxylic acid tris-[(2-methoxy-ethyl)-methyl-amide]] the “survival of 3T3-p75 cells” value (3T3-p75 cells) was “no effect”, the “survival of 3T3-TrkA cells” value (3T3-TrkA cells) was “no effect” and the “survival of 3T3-TrkC cells” value (3T3-TrkC cells) was “no effect”. The apnea index ([1]; Het mice, 5 mg/kg i.p. q72 h for 4 weeks, 24 h after last dose, vs saline-treated Het) was “significantly reduced”, the apnea index ([1]; Het mice, 5 mg/kg i.p. q72 h for 8 weeks, 24 h after last dose, vs saline-treated Het) was “significantly reduced” and the apnea index ([1]; single dose 5 mg/kg i.p., drug-naïve mice at 24 weeks of age, 24 h after dosing) was “no change”. For the same compound, the foot slip errors [2] was “no reduction”.

— paper PMC7710018, “Restoration of motor learning in a mouse model of Rett syndrome following long-term treatment with a novel small-molecule activator of TrkB” (Disease Models & Mechanisms, 2020)
